Among the data in patent publication US8987250B2 (Gilead Sciences, Inc., priority 2012, dated 2015) are EC50 values, retold here.

In this assay the test system is HIV-IIIb. Description: Test A: Antiviral Assay in MT4 Cells. The assay is classed as cell-based. In a few lines:
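Read-out: CellTiter-Glo chemiluminescence after 5-day incubation at 37 °C. Compounds tested as 3-fold serial dilutions (10 concentrations, quadruplicate) in RPMI 1640 with 10% FBS, on MT-4 cells pre-infected at 37 °C with HIV-IIIb at 0.004 m.o.i.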

[1] abbreviates: Human immunodeficiency virus 1, IIIB, MT4, 120 h, Table 1, MT-4 cells infected with HIV-IIIb, 5 days of incubation, CellTiter-Glo, read-out: EC50.
Where [2] appears, read: Human immunodeficiency virus 1, IIIB, MT4, 120 h, Table 2, MT-4 cells infected with HIV-IIIb, 5 days of incubation, CellTiter-Glo, read-out: EC50.
[3] abbreviates: Table 1, MT-4 cells infected with HIV-IIIb, 5 days of incubation, CellTiter-Glo, read-out: EC50.

Where two headings read alike, the source gives them in different places.

The term EC50 denotes the concentration that produces a half-maximal response. For `Cc1cc2nc(-c3cnc4c(c3)c(C)cn4C)sc2c(-c2ccc(Cl)cc2)c1[C@H](OC(C)(C)C)C(=O)O` [Compound 121, (S)-2-tert-butoxy-2-(7-(4-chlorophenyl)-2-(1,3-dimethyl-1H-pyrrolo[2,3-b]pyridin-5-yl)-5-methylbenzo[d]thiazol-6-yl)acetic acid], the half-maximal effective concentration (EC50) under setting [1] stood at 27 nM. Still for that read-out and setting: then `Cc1c([C@H](OC(C)(C)C)C(=O)O)c(-c2ccc3c4c(ccnc24)CCO3)c2sc(N3CCC3)nc2c1F` (atropisomer, axis not shown) [Compound 76, (S)-2-((S)-2-(azetidin-1-yl)-7-(2,3-dihydropyrano[4,3,2-de]quinolin-7-yl)-4-fluoro-5-methylbenzo[d]thiazol-6-yl)-2-tert-butoxyacetic acid], with 26 nM. Take `Cc1cc2nc(-c3ccc4c(c3)c(C3CC3)nn4C)sc2c(-c2ccc(Cl)cc2)c1[C@H](OC(C)(C)C)C(=O)O` [Compound 264, (S)-2-tert-butoxy-2-(7-(4-chlorophenyl)-2-(3-cyclopropyl-1-methyl-1H-indazol-5-yl)-5-methylbenzo[d]thiazol-6-yl)acetic acid]: the half-maximal effective concentration (EC50) under setting [2] was 17 nM. Still for that read-out and setting: then `Cc1cc2nc(-c3ccc4nc(C)n(C5CCN(C)CC5)c4c3)sc2c(-c2ccc(Cl)cc2)c1[C@H](OC(C)(C)C)C(=O)O` [Compound 413], with 33 nM; and `Cc1cc2nc(-c3ccnc(C4=CCN(C)CC4)n3)sc2c(-c2ccc(Cl)cc2)c1[C@H](OC(C)(C)C)C(=O)O` [Compound 342], with 5 nM. Consider `Cc1cc2nc(-c3cncc(-c4ccc5c(c4)ncn5C)c3)sc2c(-c2ccc(Cl)cc2)c1[C@H](OC(C)(C)C)C(=O)O` [Compound 157], for which the concentration giving a half-maximal response (EC50) under setting [1] came out at 29 nM.

On to `Cc1cc2nc(N3Cc4cccnc4C3)sc2c(-c2ccc(Cl)cc2)c1[C@H](OC(C)(C)C)C(=O)O` [Compound 431], for which the 50% effective concentration (EC50) under setting [2] was found to be 18 nM. On the same count and under the same terms, then `Cc1cc2nc(-c3ccnc(-c4nn(C)c5ccccc45)c3)sc2c(-c2ccc(Cl)cc2)c1[C@H](OC(C)(C)C)C(=O)O` [Compound 190, (S)-2-tert-butoxy-2-(7-(4-chlorophenyl)-5-methyl-2-(2-(1-methyl-1H-indazol-3-yl)pyridin-4-yl)benzo[d]thiazol-6-yl)acetic acid], with 112 nM; and `Cc1cc2nc(-c3ccc4c(cnn4C4CCN(C)CC4)n3)sc2c(-c2ccc(Cl)cc2)c1[C@H](OC(C)(C)C)C(=O)O` [Compound 361], with 20 nM; and `Cc1cc2nc(-c3ccc4c(c3)nc(C)n4C)sc2c(-c2ccc(Cl)cc2)c1[C@H](OC(C)(C)C)C(=O)O` [Compound 217, (S)-2-tert-butoxy-2-(7-(4-chlorophenyl)-2-(1,2-dimethyl-1H-benzo[d]imidazol-5-yl)-5-methylbenzo[d]thiazol-6-yl)acetic acid], with 7 nM.

Turning to `Cc1cc2nc(-c3ccnc(N4CCn5c(nnc5C(F)(F)F)C4)c3)sc2c(-c2ccc(Cl)cc2)c1[C@H](OC(C)(C)C)C(=O)O` [Compound 222, (S)-2-tert-butoxy-2-(7-(4-chlorophenyl)-5-methyl-2-(2-(3-(trifluoromethyl)-5,6-dihydro-[1,2,4]triazolo[4,3-a]pyrazin-7(8H)-yl)pyridin-4-yl)benzo[d]thiazol-6-yl)acetic acid], a half-maximal effect (Human immunodeficiency virus 1, IIIB, MT4, 120 h) (EC50) was put at 49 nM. On to `Cc1cc2nc(-c3cccc4c3cnn4C)sc2c(-c2ccc(Cl)cc2)c1[C@H](OC(C)(C)C)C(=O)O` [Compound 387], for which the EC50 under setting [2] is 530 nM. Same read-out and setting: then `Cc1cc2nc(-c3ccnc(N4CCOCC4)n3)sc2c(-c2ccc(Cl)cc2)c1[C@H](OC(C)(C)C)C(=O)O` [Compound 343], with 26 nM; and `Cc1cc2nc(-c3cc(-c4ccc5c(cnn5C)c4)ccn3)sc2c(-c2ccc(Cl)cc2)c1[C@H](OC(C)(C)C)C(=O)O` [Compound 375], with 228 nM; and `Cc1cc2nc(-c3ccnc(N4CCN(C)[C@H](C)C4)n3)sc2c(-c2ccc(Cl)cc2)c1[C@H](OC(C)(C)C)C(=O)O` [Compound 469, (S)-2-tert-butoxy-2-(7-(4-chlorophenyl)-2-(2-((R)-3,4-dimethylpiperazin-1-yl)pyrimidin-4-yl)-5-methylbenzo[d]thiazol-6-yl)acetic acid], with 8 nM. Consider `Cc1cc2nc(N3CCOC(C)(c4ccc(Cl)cc4)C3)sc2c(-c2ccc(Cl)cc2)c1[C@H](OC(C)(C)C)C(=O)O` (stereo partly drawn) [Compound 322, (2S)-2-tert-butoxy-2-(7-(4-chlorophenyl)-2-(2-(4-chlorophenyl)-2-methylmorpholino)-5-methylbenzo[d]thiazol-6-yl)acetic acid], for which the EC50 under setting [2] was 640 nM. Regarding `COC1CN(c2nc3cc(C)c([C@H](OC(C)(C)C)C(=O)O)c(-c4ccc5c6c(ccnc46)CCO5)c3s2)C1` (atropisomer, axis not shown) [Compound 55, (S)-2-tert-butoxy-2-((R)-7-(2,3-dihydropyrano[4,3,2-de]quinolin-7-yl)-2-(3-methoxyazetidin-1-yl)-5-methylbenzo[d]thiazol-6-yl)acetic acid], the EC50 under setting [3] came out at 53000 nM.

On to `Cc1cc2nc(-c3cccc(-n4cc(C)c(=O)[nH]c4=O)c3)sc2c(-c2ccc(Cl)cc2)c1[C@H](OC(C)(C)C)C(=O)O` [Compound 228, (S)-2-tert-butoxy-2-(7-(4-chlorophenyl)-5-methyl-2-(3-(5-methyl-2,4-dioxo-3,4-dihydropyrimidin-1(2H)-yl)phenyl)benzo[d]thiazol-6-yl)acetic acid], for which, under setting [2], the concentration giving a half-maximal response (EC50) stood at 910 nM. Still for that read-out and setting: then `Cc1cc2nc(-c3ccc4nn(Cc5ccccc5)c(C)c4c3)sc2c(-c2ccc(Cl)cc2)c1[C@H](OC(C)(C)C)C(=O)O` [Compound 315, (S)-2-(2-(2-benzyl-3-methyl-2H-indazol-5-yl)-7-(4-chlorophenyl)-5-methylbenzo[d]thiazol-6-yl)-2-tert-butoxyacetic acid], with 34 nM; and `Cc1cc2nc(N3CCO[C@@H](c4ccc5c(cnn5C)c4)C3)sc2c(-c2ccc(Cl)cc2)c1[C@H](OC(C)(C)C)C(=O)O` [Compound 326, (S)-2-tert-butoxy-2-(7-(4-chlorophenyl)-5-methyl-2-((S)-2-(1-methyl-1H-indazol-5-yl)morpholino)benzo[d]thiazol-6-yl)acetic acid], with 66 nM. For `Cc1cc2nc(-c3ccnc(-c4cncc(C(N)=O)c4)c3)sc2c(-c2ccc(Cl)cc2)c1[C@H](OC(C)(C)C)C(=O)O` [Compound 149], under setting [1], the concentration giving a half-maximal response (EC50) came out at 153 nM. As to `Cc1cc2nc(-c3ccc4nnn(C)c4c3)sc2c(-c2ccc(Cl)cc2)c1[C@H](OC(C)(C)C)C(=O)O` [Compound 316, (S)-2-tert-butoxy-2-(7-(4-chlorophenyl)-5-methyl-2-(1-methyl-1H-benzo[d][1,2,3]triazol-6-yl)benzo[d]thiazol-6-yl)acetic acid], under setting [2], the EC50 is 18 nM. Regarding `Cc1cc2nc(-c3cccc(-c4ccc5c(cnn5C)c4)c3)sc2c(-c2ccc3c4c(ccnc24)CCO3)c1[C@H](OC(C)(C)C)C(=O)O` (atropisomer, axis not shown) [Compound 164], the EC50 under setting [3] is 483 nM. In the case of `Cc1cc2nc(N3CCN(c4ccc5c(cnn5C)c4)C3=O)sc2c(-c2ccc(Cl)cc2)c1[C@H](OC(C)(C)C)C(=O)O` [Compound 124, (S)-2-tert-butoxy-2-(7-(4-chlorophenyl)-5-methyl-2-(3-(1-methyl-1H-indazol-5-yl)-2-oxoimidazolidin-1-yl)benzo[d]thiazol-6-yl)acetic acid], under setting [1], the EC50 was 21 nM. Same read-out and setting: then `Cc1cc2nc(-c3ccnc(-c4cncc(C(=O)O)c4)c3)sc2c(-c2ccc(Cl)cc2)c1[C@H](OC(C)(C)C)C(=O)O` [Compound 148], with 2700 nM.
